Laboratory results published in PMC11571215, “Optimization of Antiproliferative Properties of Triimine Copper(II) Complexes” (Journal of Medicinal Chemistry, 2024).

Key:
Type in all cases: cell-based, human
[1] = tested on: HCT116 cells (colorectal carcinoma); assay: MTS cell viability assay, HCT116 2D; details: for IC50: 48 h of exposure, MTS, relative IC50, mean + SEM; for SI HCT116: ratio IC50 fibroblasts / IC50 HCT116
Description: (§1) The antiproliferative effect of the Cu(II) complexes in tumor and healthy cell lines was assessed through the MTS assay, a colorimetric method that is widely used to evaluate cellular viability, specifically mitochondrial viability.[53],[54] Cellular viability was determined after 48 h exposure to a concentration range (0.1–50 μM) of Cu(II) complexes in three tumor cell lines. […] Additionally, the viability of healthy primary dermal fibroblasts was performed as a comparison of the complexes’ antiproliferative effects in normal cells.
(§2) Cellular viability assays were performed using HCT116, HCT116-DoxR, and A2780 cancer cell lines as well as normal human primary fibroblasts. Cells were seeded at a density of 0.75 × 10^5 cells/mL in 96-well plates and incubated at 37 °C with 5% (v/v) CO2 for 24 h. After this incubation period, the copper complexes were accurately weighed and immediately dissolved in 100% (v/v) dimethyl sulfoxide (DMSO). Subsequently, the complexes were diluted to the final concentration using a cell culture medium. The culture medium in each well was replaced with fresh medium containing varying concentrations of the complexes (ranging from 0.01 to 50 μM). Negative controls contained culture medium with 0.1% (v/v) DMSO, and positive controls contained 0.4 μM Dox.
(§3) After an additional 48 h of incubation under the same conditions, cellular viability was assessed using the CellTiter 96 Aqueous One Solution Cell Proliferation Assay kit (Promega, Madison, USA). Metabolically active cells contain mitochondrial dehydrogenases that can reduce 3-(4,5-dimethylthiazol-2-yl)-5-(3-carboxymethoxyphenyl)-2-(4-sulfophenyl)-2H-tetrazolium, the inner salt (MTS) to formazan. The absorbance of formazan, measured at 490 nm in a microplate reader (Tecan Infinite M200, Tecan, Männedorf, Switzerland), is directly proportional to the number of viable cells.[104]
(§4) The cell viability versus concentration graphics were analyzed using Prism 8 software (GraphPad) to determine the half-maximal inhibitory concentration (IC50) of each complex for the respective cell line. Additionally, the selective index (SI) for each complex was calculated by dividing the IC50 of human fibroblasts by the IC50 values of the tested cancer cell lines.

[2] = tested on: A2780 cells (ovarian carcinoma); assay: MTS cell viability assay, A2780; details: for IC50: 48 h of exposure, MTS, relative IC50, mean + SEM; for SI A2780: ratio IC50 fibroblasts / IC50 A2780
Description: as §1, §2, §3, §4

HCT116-DoxR cells [3] = assay: Autophagy induction (CYTO-ID green, flow cytometry); details: 48 h; complexes at IC50, Dox 6 μM, Cis 5 μM, rapamycin 1500 nM
Source text: Furthermore, previous studies have shown that complexes containing terpyridine derivatives have the ability to trigger both apoptosis and autophagy cell death mechanisms in cancer cells simultaneously.[38] This convergence of death pathways may arise from an adaptive response of the heterogeneous tumor cell population.[38] In this context, understanding the mechanism by which cells lose viability in the presence of the two Cu(II) complexes with the simultaneous induction of apoptosis and autophagy becomes crucial. Autophagy is a highly conserved catabolic process crucial for maintaining cellular homeostasis but is also associated with type II programmed cell death.[75] It involves intracellular degradation through autophagolysosomes responsible for breaking down luminal content and enabling recycling of cellular components.[76],[77] The assessment of the complexes’ ability to induce autophagy was conducted using flow cytometry, employing the CYTO-ID green detection reagent. This probe emits green fluorescence, marking the autophagic vacuoles within the cell. Higher fluorescence indicates a greater proportion of autophagolysosomes.[78] Three positive controls were used: Dox, Cis, and rapamycin (1500 nM), whose concentration was previously optimized for the HCT116-DoxR cell line in the laboratory.[64] Rapamycin is known to induce autophagy through its mechanistic target, mTOR.
Cell death via autophagy was evaluated using the Autophagy Assay Kit (ab139484; Abcam, Cambridge, United Kingdom), according to the manufacturers’ instructions. HCT116-DoxR cells were seeded at a density of 1 × 10^5 cells/mL in 6-well plates for 24 h, under the same conditions described before. After this incubation period, the culture medium was replaced with a fresh medium containing the copper complexes under evaluation at their IC50 concentration. A 0.1% (v/v) DMSO solution was used as the negative (vehicle) control, and 6 μM Dox and 5 μM Cis were used as positive controls. The cells were incubated again for 48 h. Rapamycin (1500 nM) was also added as a positive control, and it was added 18 h before the end of the 48 h incubation. After this period, the supernatant was discarded, and each well was washed with PBS 1×. Subsequently, cells were detached using TrypLE Express and washed with phenol red-free DMEM medium containing 5% (v/v) FBS. Cells were incubated with Green Stain Solution in phenol red-free DMEM medium containing 5% (v/v) FBS for 30 min at RT. After this period, the samples were washed and then resuspended in Assay Buffer 1×. The samples were analyzed using an Attune Acoustic Focusing Flow Cytometer (Life Technologies, Carlsbad, USA), and the results were analyzed via the Attune Cytometric software.

HCT116-DoxR cells [4] = assay: ROS production (H2DCF-DA, flow cytometry); details: 48 h; complexes at IC50, Dox 6 μM, Cis 5 μM
Source text: The literature widely describes the relationship between the induction of these types of programmed cell death and the production of reactive oxygen species (ROS).[79]−[81] ROS can arise from endogenous or exogenous sources and play a role in carcinogenesis and tumor development, causing DNA damage.[81],[82] The accumulation of high ROS levels results in oxidative stress in cancer cells, a condition that can be exploited by surpassing the intrinsic antioxidant capacity of tumor cells as a targeted therapeutic approach.[75] It is known that Cu(II) complexes induce ROS production.[38] In this regard, the production of reactive oxygen species was quantified in HCT116-DoxR cells using the 2′,7′-dichlorodihydrofluorescein diacetate (H2DCF-DA) probe, which is rapidly oxidized in the presence of ROS, generating the compound 2′,7′-dichlorodihydrofluorescein (DCF), whose fluorescence can be detected by flow cytometry.[71] The fluorescence intensity is directly proportional to the amount of intracellular ROS. […] TBHP is a widely used organic peroxide in oxidative stress studies as it activates caspase-mediated apoptosis and ROS production.[83]
The quantification of reactive oxygen species (ROS) production was performed using the probe dichlorofluorescein diacetate (H2DCF-DA) (molecular probes: reactive oxygen species (ROS) detection reagents, Invitrogen, USA). Briefly, HCT116-DoxR cells were seeded in six-well plates at a density of 1 × 10^5 cells/mL and incubated for 24 h under the conditions mentioned before. After the incubation period, the medium was replaced with fresh medium containing the tested copper complexes at their IC50 concentrations. 0.1% (v/v) DMSO solution was used as the negative control, and 6 μM Dox, 5 μM Cis, and 42 μM Tertbutyl Hydroperoxide (TBHP) were used as positive controls. The cells were incubated again under the same conditions mentioned above for 48 h. Later, the culture medium was removed, cells were washed with PBS 1× and TrypLE Express to detach them and then they were washed again with PBS 1×. After that, cells were incubated in a solution of 10 μM H2DCF-DA in PBS 1x for 20 min at 37 °C. Subsequently, the samples were analyzed by the Attune Acoustic Focusing Flow Cytometer (Life Technologies, Carlsbad, USA), and the obtained data were processed by the respective software (Attune Cytometric software).

| IC50 ([1]; Homo sapiens, HCT-116) | IC50 ([2]; Homo sapiens, A2780) | Structure (SMILES) | IC50 [1] | IC50 [2] | increase in autophagic vesicles compared to 0.1% DMSO control (HCT116-DoxR cells [3]) | ROS production higher than DMSO control (HCT116-DoxR cells [4]) | SI HCT116 [1] | SI A2780 [2] |
| --- | --- | --- | --- | --- | --- | --- | --- | --- |
|  |  | N.N.[Cl][Pt][Cl] [Cisplatin] | 15600 ± 5300 nM | 1900 ± 200 nM | increase in green fluorescence intensity | 2.2 × |  |  |
|  |  | [Cl][Cu-3]12([Cl])[n+]3ccccc3-c3cc(-c4ccc5ccccc5c4)cc([n+]31)-c1cccc[n+]12 [Cu1b] | 210 ± 50 nM | 570 ± 60 nM | approximately 2 fold | 1.48 × | 63.3 | 23.3 |
| 500 ± 100 nM | 100 ± 40 nM | COc1cccc2c1C(=O)c1c(O)c3c(c(O)c1C2=O)C[C@@](O)(C(=O)CO)C[C@@H]3O[C@H]1C[C@H](N)[C@H](O)[C@H](C)O1 [Doxorubicin] |  |  | 2.2 fold | 1.8 × |  |  |
|  |  | [Cl][Cu-3]12([Cl])[n+]3ccccc3-c3cc(-c4cccc5ccccc45)cc([n+]31)-c1cccc[n+]12 [Cu1a] | 280 ± 30 nM | 530 ± 70 nM | approximately 2 fold | 1.42 × | 33.1 | 17.5 |
